Measurements reported in patent US12180185B2, “Compound as protein kinase inhibitor, and pharmaceutical composition comprising thereof” (HK INNO.N Corporation, priority 2018, dated 2024).

Each compound was assayed against JAK1 (Homo sapiens (Human), UniProt P23458) (assay: Analysis of JAK1 activity inhibitory capacity (ADP-Glo Kinase assay)). Settings: JAK1 enzyme, ATP 250 uM, IRS-1tide substrate, 30° C. 40 minutes, luminescence.
Format: biochemical
Description: Experimental Example 1: Analysis of JAK1 activity inhibitory capacity (ADP-Glo™ Kinase assay)
An inhibitory effect of the inventive compound on JAK was identified as follows.
A control material and a test material were prepared through dilution at each concentration by using DMSO. At the same time, ATP (250 uM) and JAK's substrate (JAK1, IRS-1tide 40 ng/mL) were prepared through dilution in kinase buffer (40 mM Tris-HCl pH 7.5, 20 mM MgCl2, 0.5 mg/mL BSA, 50 uM DTT).
A test drug for each concentration, the substrate, the ATP and JAK enzymes were mixed in an eppendorf tube, and then subjected to reaction in an incubator at 30° C. for 40 minutes.
ADP-Glo ? reagent included in ADP-Glo™ Kinase Enzyme System (Promega, USA, V9571) was added to each eppendorf tube, and then subjected to reaction in the incubator at 30° C. for 40 minutes.
A kinase detection reagent included in the ADP-Glo™ Kinase Enzyme System was inserted into the eppendorf tube, after which luminescence was measured by using Wallac Victor 2TM with an integration time set to 1 second, such that an inhibitory capacity of the test material on JAKs phosphorylation was analyzed. A concentration of the compound, at which JAK enzyme activity inhibition occurs 50% compared to the control group, was determined as IC50 (nM) of an inhibitor.

Sequence of JAK1 (P23458 whole entry): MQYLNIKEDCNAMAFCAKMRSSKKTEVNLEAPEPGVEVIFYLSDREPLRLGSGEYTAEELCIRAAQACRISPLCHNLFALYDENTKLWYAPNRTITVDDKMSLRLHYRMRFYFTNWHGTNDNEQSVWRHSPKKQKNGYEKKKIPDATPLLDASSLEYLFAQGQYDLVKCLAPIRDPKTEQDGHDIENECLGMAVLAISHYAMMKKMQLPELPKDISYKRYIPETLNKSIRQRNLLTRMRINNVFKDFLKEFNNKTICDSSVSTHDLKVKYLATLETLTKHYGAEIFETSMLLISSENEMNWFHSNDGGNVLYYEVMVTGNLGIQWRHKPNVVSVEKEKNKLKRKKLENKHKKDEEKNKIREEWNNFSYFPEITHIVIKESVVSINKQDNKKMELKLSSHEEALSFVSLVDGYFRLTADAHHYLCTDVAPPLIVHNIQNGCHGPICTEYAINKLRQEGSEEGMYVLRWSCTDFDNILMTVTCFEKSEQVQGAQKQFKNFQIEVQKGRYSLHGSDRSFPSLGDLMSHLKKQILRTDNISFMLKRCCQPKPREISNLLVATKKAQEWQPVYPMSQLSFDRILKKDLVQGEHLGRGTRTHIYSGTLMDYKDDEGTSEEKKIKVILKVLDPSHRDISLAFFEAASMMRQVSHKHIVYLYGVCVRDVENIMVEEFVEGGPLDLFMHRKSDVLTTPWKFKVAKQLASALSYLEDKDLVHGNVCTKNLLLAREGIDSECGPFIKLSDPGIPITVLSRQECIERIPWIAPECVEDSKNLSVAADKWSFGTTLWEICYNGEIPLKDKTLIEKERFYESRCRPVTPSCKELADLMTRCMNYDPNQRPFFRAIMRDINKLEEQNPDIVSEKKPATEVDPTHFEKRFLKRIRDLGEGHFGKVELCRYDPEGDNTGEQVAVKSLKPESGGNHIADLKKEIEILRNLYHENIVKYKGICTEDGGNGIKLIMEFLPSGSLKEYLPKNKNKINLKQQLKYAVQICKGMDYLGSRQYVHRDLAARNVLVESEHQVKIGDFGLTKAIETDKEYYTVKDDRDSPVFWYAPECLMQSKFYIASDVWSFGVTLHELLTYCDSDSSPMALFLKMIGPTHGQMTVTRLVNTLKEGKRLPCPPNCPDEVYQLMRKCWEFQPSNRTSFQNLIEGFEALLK

**Q.** CC(C)=C(C#N)C(=O)Nc1cccc2c(-c3ccnc(NC(=O)C4CC4)c3)c[nH]c12 [Example 1, N-(4-(7-(2-cyano-3-methylbut-2-enamido)-1H-indol-3-yl)pyridin-2-yl)cyclopropanec arboxamide] was tested. Which IC50 did it give?
**A.** < 100 nM

**Q.** O=C(Nc1cccc2c(-c3ccnc(NC(=O)C4CC4)c3)c[nH]c12)c1cc(F)cc(F)c1 [Example 2, N-(3-(2-(cyclopropanecarboxamido)pyridin-4-yl)-1H-indol-7-yl)-3,5-difluorobenzamide] was tested. Which IC50 did it give?
**A.** < 100 nM

**Q.** O=C(Nc1cc(-c2c[nH]c3c(NC(=O)C4CCCCC4)cccc23)ccn1)C1CC1 [Example 3, N-(3-(2-(cyclopropanecarboxamido)pyridin-4-yl)-1H-indol-7-yl)cyclohexanecarboxamide] was tested. Which IC50 did it give?
**A.** 100 to 1000 nM

**Q.** O=C(Nc1cccc2c(-c3ccnc(NC(=O)C4CC4)c3)c[nH]c12)c1ccnc(F)c1 [Example 4, N-(3-(2-(cyclopropanecarboxamido)pyridin-4-yl)-1H-indol-7-yl)-2-fluoroisonicotinamide] was tested. Which IC50 did it give?
**A.** < 100 nM

**Q.** Cc1cc(C)cc(C(=O)Nc2cccc3c(-c4ccnc(NC(=O)C5CC5)c4)c[nH]c23)c1 [Example 5, N-(3-(2-(cyclopropanecarboxamido)pyridin-4-yl)-1H-indol-7-yl)-3,5-dimethylbenzamid] was tested. Which IC50 did it give?
**A.** < 100 nM

**Q.** For O=C(Nc1cccc2c(-c3ccnc(NC(=O)C4CC4)c3)c[nH]c12)c1cncs1 [Example 6, N-(3-(2-(cyclopropanecarboxamido)pyridin-4-yl)-1H-indol-7-yl)thiazole-5-carboxamide], which IC50 is on record?
**A.** < 100 nM

**Q.** Which IC50 does the source give for CCCC(=O)Nc1cccc2c(-c3ccnc(NC(=O)C4CC4)c3)c[nH]c12 [Example 7, N-(4-(7-butyramido-1H-indol-3-yl)pyridin-2-yl)cyclopropanecarboxamide] here?
**A.** < 100 nM

**Q.** Cc1cnc(NC(=O)C2CC2)cc1-c1c[nH]c2c(NC(=O)CC#N)cccc12 [Example 8, N-(4-(7-(2-cyanoacetamido)-1H-indol-3-yl)-5-methylpyridin-2-yl)cyclopropanecarboxamide] was tested. Which IC50 did it give?
**A.** 100 to 1000 nM

**Q.** For CC(C)=C(C#N)C(=O)Nc1cccc2c(-c3cc(C)nc(NC(=O)C4CC4)c3)c[nH]c12 [Example 9, N-(4-(7-(2-cyano-3-methylbut-2-enamido)-1H-indol-3-yl)-6-methylpyridin-2-yl)cyclopropanecarboxamide], which IC50 is on record?
**A.** > 1000 nM

**Q.** For N#CCC(=O)Nc1cccc2c(-c3ccnc(NC(=O)C4CC4)c3)c[nH]c12 [Example 10, N-(4-(7-(2-cyanoacetamido)-1H-indol-3-yl)pyridin-2-yl)cyclopropanecarboxamide], which IC50 is on record?
**A.** < 100 nM

**Q.** With N#CC1(C(=O)Nc2cccc3c(-c4ccnc(NC(=O)C5CC5)c4)c[nH]c23)CCOCC1 [Example 11, 4-cyano-N-(3-(2-(cyclopropanecarboxamido)pyridin-4-yl)-1H-indol-7-yl)tetrahydro-2H-pyran-4-carboxamide] as the compound, how does the IC50 read?
**A.** 100 to 1000 nM

**Q.** CC(C)=C(C#N)C(=O)Nc1cccc2c(-c3cc(NC(=O)C4CC4)ncc3C)c[nH]c12 [Example 12, N-(4-(7-(2-cyano-3-methylbut-2-enamido)-1H-indol-3-yl)-5-methylpyridin-2-yl)cyclopropanecarboxamide] was tested. Which IC50 did it give?
**A.** > 1000 nM

**Q.** For N#CC1(CC(=O)Nc2cccc3c(-c4ccnc(NC(=O)C5CC5)c4)c[nH]c23)CC1 [Example 13, N-(4-(7-(2-(l-cyanocyclopropyl)acetamido)-1H-indol-3-yl)pyridin-2-yl)cyclopropanecarboxamide], which IC50 is on record?
**A.** 100 to 1000 nM

**Q.** CC(C#N)C(=O)Nc1cccc2c(-c3ccnc(NC(=O)C4CC4)c3)c[nH]c12 (stereo not shown) [Example 14, N-(4-(7-(2-cyanopropanamido)-1H-indol-3-yl)pyridin-2-yl)cyclopropanecarboxamide] was tested. Which IC50 did it give?
**A.** < 100 nM

**Q.** For CC(C)=C(C#N)C(=O)Nc1cc(C)cc2c(-c3ccnc(NC(=O)C4CC4)c3)c[nH]c12 [Example 15, N-(4-(7-(2-cyano-3-methylbut-2-enamido)-5-methyl-1H-indol-3-yl)pyridin-2-yl)cyclo propanecarboxamide], which IC50 is on record?
**A.** 100 to 1000 nM

**Q.** Which IC50 does the source give for Cc1cc(NC(=O)c2cnc(C)cn2)c2[nH]cc(-c3ccnc(NC(=O)C4CC4)c3)c2c1 [Example 16, N-(3-(2-(cyclopropanecarboxamido)pyridin-4-yl)-5-methyl-1H-indol-7-yl)-5-methylpyrazine-2-carboxamide] here?
**A.** 100 to 1000 nM

**Q.** With CC(C)=C(C)C(=O)Nc1cccc2c(-c3ccnc(NC(=O)C4CC4)c3)c[nH]c12 [Example 17, N-(4-(7-(2,3-dimethylbut-2-enamido)-1H-indol-3-yl)pyridin-2-yl)cyclopropanecarboxamide] as the compound, how does the IC50 read?
**A.** 100 to 1000 nM

**Q.** For CC(C(=O)Nc1cccc2c(-c3ccnc(NC(=O)C4CC4)c3)c[nH]c12)N1CCN(C)CC1 (stereo not shown) [Example 18, N-(4-(7-(2-(4-methylpiperazin-1-yl)propanamido)-1H-indol-3-yl)pyridin-2-yl)cyclopropanecarboxamide], which IC50 is on record?
**A.** 100 to 1000 nM

**Q.** For COc1cc(-c2c[nH]c3c(NC(=O)C(C#N)=C(C)C)cccc23)cc(NC(=O)C2CC2)n1 [Example 19, N-(4-(7-(2-cyano-3-methylbut-2-enamido)-1H-indol-3-yl)-6-methoxypyridin-2-yl)cyclopropanecarboxamide], which IC50 is on record?
**A.** > 1000 nM

**Q.** Which IC50 does the source give for COc1cc(-c2c[nH]c3c(NC(=O)CC#N)cccc23)cc(NC(=O)C2CC2)n1 [Example 20, N-(4-(7-(2-cyanoacetamido)-1H-indol-3-yl)-6-methoxypyridin-2-yl)cyclopropanecarboxamide] here?
**A.** > 1000 nM

**Q.** For O=C(Nc1cccc2c(-c3ccnc(NC(=O)C4CC4)c3)c[nH]c12)c1nc(C(F)(F)F)cs1 [Example 21, N-(3-(2-(cyclopropanecarboxamido)pyridin-4-yl)-1H-indol-7-yl)-4-(trifluoromethyl)thiazole-2-carboxamide], which IC50 is on record?
**A.** 100 to 1000 nM

**Q.** N#C/C(=C\c1ccccc1)C(=O)Nc1cccc2c(-c3ccnc(NC(=O)C4CC4)c3)c[nH]c12 [Example 22, (E)-N-(4-(7-(2-cyano-3-phenylacrylamido)-1H-indol-3-yl)pyridin-2-yl)cyclopropanecarboxamide] was tested. Which IC50 did it give?
**A.** 100 to 1000 nM

**Q.** For O=C(Nc1cccc2c(-c3ccnc(NC(=O)C4CC4)c3)c[nH]c12)c1ccc[nH]1 [Example 23, N-(3-(2-(cyclopropanecarboxamido)pyridin-4-yl)-1H-indol-7-yl)-1H-pyrrole-2-carboxamide], which IC50 is on record?
**A.** 100 to 1000 nM

**Q.** Which IC50 does the source give for Cc1ccncc1C(=O)Nc1cccc2c(-c3ccnc(NC(=O)C4CC4)c3)c[nH]c12 [Example 24, N-(3-(2-(cyclopropanecarboxamido)pyridin-4-yl)-1H-indol-7-yl)-4-methylnicotinamide] here?
**A.** < 100 nM

**Q.** For N#C/C(=C\c1cccs1)C(=O)Nc1cccc2c(-c3ccnc(NC(=O)C4CC4)c3)c[nH]c12 [Example 25, (E)-N-(4-(7-(2-cyano-3-(thiophen-2-yl)acrylamido)-1H-indol-3-yl)pyridin-2-yl)cyclopropanecarboxamide], which IC50 is on record?
**A.** 100 to 1000 nM

**Q.** Which IC50 does the source give for CC(C)=C(C#N)C(=O)Nc1cccc2c(-c3ccnc(NC(=O)C4CC4)c3)cn(C)c12 [Example 26, N-(4-(7-(2-cyano-3-methylbut-2-enamido)-1-methyl-1H-indol-3-yl)pyridin-2-yl)cyclopropanecarboxamide] here?
**A.** > 1000 nM

**Q.** N#Cc1ccc(C(=O)Nc2cccc3c(-c4ccnc(NC(=O)C5CC5)c4)c[nH]c23)cc1 [Example 27, 4-cyano-N-(3-(2-(cyclopropanecarboxamido)pyridin-4-yl)-1H-indol-7-yl)benzamide] was tested. Which IC50 did it give?
**A.** 100 to 1000 nM

**Q.** How did the IC50 turn out when Cc1ccc(C(=O)Nc2cccc3c(-c4ccnc(NC(=O)C5CC5)c4)c[nH]c23)cn1 [Example 28, N-(3-(2-(cyclopropanecarboxamido)pyridin-4-yl)-1H-indol-7-yl)-6-methylnicotinamide] was run?
**A.** < 100 nM

**Q.** O=C(Nc1cccc2c(-c3ccnc(NC(=O)C4CC4)c3)c[nH]c12)c1ccc(C(F)(F)F)nc1 [Example 29, N-(3-(2-(cyclopropanecarboxamido)pyridin-4-yl)-1H-indol-7-yl)-6-(trifluoromethyl) nicotinamide] was tested. Which IC50 did it give?
**A.** 100 to 1000 nM

**Q.** For O=C(Nc1cccc2c(-c3ccnc(NC(=O)C4CC4)c3)c[nH]c12)c1cnc(F)c(F)c1 [Example 30, N-(3-(2-(cyclopropanecarboxamido)pyridin-4-yl)-1H-indol-7-yl)-5,6-difluoronicotinamide], which IC50 is on record?
**A.** < 100 nM

**Q.** For O=C(Nc1cccc2c(-c3ccnc(NC(=O)C4CC4)c3)c[nH]c12)c1cncc(F)c1 [Example 31, N-(3-(2-(cyclopropanecarboxamido)pyridin-4-yl)-1H-indol-7-yl)-5-fluoronicotinamide], which IC50 is on record?
**A.** < 100 nM

**Q.** For O=C(Nc1cccc2c(-c3ccnc(NC(=O)C4CC4)c3)c[nH]c12)c1ccc(Cl)nc1 [Example 32, 6-chloro-N-(3-(2-(cyclopropanecarboxamido)pyridin-4-yl)-1H-indol-7-yl)nicotinamide], which IC50 is on record?
**A.** 100 to 1000 nM

**Q.** How did the IC50 turn out when O=C(Nc1cccc2c(-c3ccnc(NC(=O)C4CC4)c3)c[nH]c12)c1cc[nH]n1 [Example 33, N-(3-(2-(cyclopropanecarboxamido)pyridin-4-yl)-1H-indol-7-yl)-1H-pyrazole-3-carboxamide] was run?
**A.** 100 to 1000 nM

**Q.** Which IC50 does the source give for Cn1cccc(C(=O)Nc2cccc3c(-c4ccnc(NC(=O)C5CC5)c4)c[nH]c23)c1=O [Example 34, N-(3-(2-(cyclopropanecarboxamido)pyridin-4-yl)-1H-indol-7-yl)-1-methyl-2-oxo-1,2-dihydropyridine-3-carboxamide] here?
**A.** 100 to 1000 nM
